From patent publication US11014896B2, “TRPA1 and TRPV4 inhibitors and methods of using the same for organ-specific inflammation and itch” (Duke University, priority 2014, dated 2021)
Entries after “also recorded” stand apart in the source; their conditions may differ.

Legend:
TRPV4 [1] = target: TRPV4 (Homo sapiens, UniProt Q9HBA0); assay: UVB-evoked Ca++ transient in TRPV4-transfected HEK293T cells; type: cell-based; design: expressed in transfected cells; host or cells: HEK293T cells; conditions: pre-exposure to 20 μM GSK205
TRPV4 (Homo sapiens, UniProt Q9HBA0), sequence (Q9HBA0 whole entry, species assumed): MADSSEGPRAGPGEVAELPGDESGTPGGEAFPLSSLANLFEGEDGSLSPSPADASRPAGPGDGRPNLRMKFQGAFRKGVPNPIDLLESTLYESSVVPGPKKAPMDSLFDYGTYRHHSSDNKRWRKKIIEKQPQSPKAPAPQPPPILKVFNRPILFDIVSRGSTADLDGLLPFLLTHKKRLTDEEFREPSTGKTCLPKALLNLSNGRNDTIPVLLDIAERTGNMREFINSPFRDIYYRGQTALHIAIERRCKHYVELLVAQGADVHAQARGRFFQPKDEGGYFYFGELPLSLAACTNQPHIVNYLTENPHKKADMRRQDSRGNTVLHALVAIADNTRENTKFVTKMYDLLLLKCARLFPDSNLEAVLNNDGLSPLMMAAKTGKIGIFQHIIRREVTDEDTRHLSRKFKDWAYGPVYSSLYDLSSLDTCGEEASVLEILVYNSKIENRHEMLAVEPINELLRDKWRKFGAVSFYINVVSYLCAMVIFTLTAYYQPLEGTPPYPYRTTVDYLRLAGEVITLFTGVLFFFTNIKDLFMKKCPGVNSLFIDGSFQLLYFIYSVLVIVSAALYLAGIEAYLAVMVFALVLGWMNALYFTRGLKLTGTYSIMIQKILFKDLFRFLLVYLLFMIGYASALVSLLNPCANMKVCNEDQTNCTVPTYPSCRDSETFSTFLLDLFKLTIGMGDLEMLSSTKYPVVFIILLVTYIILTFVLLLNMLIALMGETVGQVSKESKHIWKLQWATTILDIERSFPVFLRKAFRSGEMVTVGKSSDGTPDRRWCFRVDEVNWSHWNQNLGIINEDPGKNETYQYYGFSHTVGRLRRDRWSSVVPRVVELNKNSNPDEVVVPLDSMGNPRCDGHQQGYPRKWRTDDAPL

IL-6 = assay: Keratinocyte IL-6 expression in UVB-exposed footpad after topical treatment; type: in vivo, mouse; conditions: 5 mM GSK205 topical
Description: GSK205 topical treatment: A viscous solution of 68% EtOH/5% glycerol plus 1 mM or 5 mM GSK205 (none for control) was applied to hindpaws by rubbing in 20 μL, applied at time-points 1 hour and again 10 min before UV exposure.
Routine procedures were followed as described previously (Chen et al., 2009). Mice were perfused transcardially with 30 mL PBS, followed by 30 mL 4% paraformaldehyde. Tissues, including the L5 DRGs (bilateral), and footpad preparations, were dissected and post-fixed in 4% paraformaldehyde. Tissue blocks were further cryoprotected in 30% sucrose in PBS for 24-48 hours. For mouse TRPV4, keratin-specific antibodies, phospho-ERK, IL-6, IL-1β, CXCL5 and caspase-1, tissue was prepared as frozen blocks and subsequently sectioned on a cryostat. For CD68, CD15 (neutrophil elastase) and CD3, mouse skin was prepared by 2% PFA perfusion. […]

TRPV4 [2] = target: T1, TRPV4 (Mus musculus, UniProt Q9EPK8); assay: GSK101-evoked Ca++ transient in 1° MK; type: cell-based; conditions: 5 nM GSK101; GSK205 20 μM
T1 construct: endogenous in cells; host or cells: primary mouse epidermal keratinocytes (1° MK), wild type
T1 sequence (Q9EPK8 whole entry): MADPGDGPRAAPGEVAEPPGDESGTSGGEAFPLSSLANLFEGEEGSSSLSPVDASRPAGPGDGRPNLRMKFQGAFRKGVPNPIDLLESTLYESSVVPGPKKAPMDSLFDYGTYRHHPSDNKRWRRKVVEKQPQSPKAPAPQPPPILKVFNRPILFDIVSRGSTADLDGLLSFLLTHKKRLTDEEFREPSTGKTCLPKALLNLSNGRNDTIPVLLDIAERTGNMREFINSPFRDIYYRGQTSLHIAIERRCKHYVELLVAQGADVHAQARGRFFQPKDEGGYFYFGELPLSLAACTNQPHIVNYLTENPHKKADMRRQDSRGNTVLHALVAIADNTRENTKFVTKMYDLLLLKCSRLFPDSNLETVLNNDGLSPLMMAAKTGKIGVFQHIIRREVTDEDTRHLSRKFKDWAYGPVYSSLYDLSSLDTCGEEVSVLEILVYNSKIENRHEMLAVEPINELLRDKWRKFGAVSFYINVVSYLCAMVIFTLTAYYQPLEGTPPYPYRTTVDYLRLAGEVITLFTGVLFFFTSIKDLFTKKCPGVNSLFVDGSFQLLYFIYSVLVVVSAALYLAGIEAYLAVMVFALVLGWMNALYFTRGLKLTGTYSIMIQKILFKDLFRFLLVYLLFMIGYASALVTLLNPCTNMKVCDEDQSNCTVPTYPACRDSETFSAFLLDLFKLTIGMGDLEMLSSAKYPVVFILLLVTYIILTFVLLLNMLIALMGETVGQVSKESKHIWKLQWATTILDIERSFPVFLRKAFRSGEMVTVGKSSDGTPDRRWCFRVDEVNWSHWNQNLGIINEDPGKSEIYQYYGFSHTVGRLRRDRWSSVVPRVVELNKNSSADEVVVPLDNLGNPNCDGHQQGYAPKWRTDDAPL
Description: Ca++ imaging of mouse 1° MK in response to chemical activation of TRPV4 was conducted after loading with 2 μM fura2-AM, following a ratiometric Ca2+ imaging protocol with 340/380 nm […] for dual excitation. Ratios of emissions were acquired at 0.5 Hz. ΔR/R0 was determined as the fraction of the increase of a given ratio over baseline ratio, divided by baseline ratio. For stimulation of cells with UVB, where fura-2 was not suitable because of the proximity of stimulation with 340/380 nm and 295 nm, 2 μM fluo4-AM was used instead. Ca++ imaging was carried out at 488 nm excitation, acquisition of emissions at 0.5 Hz, expressed as ΔF/F0. In the custom-built UV optical system, UV LEDs were capped with a ball lens, a transparent optical window in the shape of a hemispherical lens (FIG. 2B). The LED output optical beam focused at 15-20 mm from the lens, with a spot diameter of approximately 1.5-2.0 mm (FIG. 2C). […] The thermal equilibration stage was set for physiological temperature. We confirmed the non-thermal nature of UVB stimulation using the customized 295 nm LED device in a dedicated experiment (FIG. 2D), thus confirming the specific modality of stimulation as UVB.

human TRPV3 = target: T2, human TRPV3 (Homo sapiens, UniProt Q8NET8); assay: Ca2+ signal in N2a cells transfected with human TRPV3; type: cell-based; conditions: stimulation with camphor
T2 construct: expressed in transfected cells; host or cells: N2a cells
T2 sequence (Q8NET8 1-790): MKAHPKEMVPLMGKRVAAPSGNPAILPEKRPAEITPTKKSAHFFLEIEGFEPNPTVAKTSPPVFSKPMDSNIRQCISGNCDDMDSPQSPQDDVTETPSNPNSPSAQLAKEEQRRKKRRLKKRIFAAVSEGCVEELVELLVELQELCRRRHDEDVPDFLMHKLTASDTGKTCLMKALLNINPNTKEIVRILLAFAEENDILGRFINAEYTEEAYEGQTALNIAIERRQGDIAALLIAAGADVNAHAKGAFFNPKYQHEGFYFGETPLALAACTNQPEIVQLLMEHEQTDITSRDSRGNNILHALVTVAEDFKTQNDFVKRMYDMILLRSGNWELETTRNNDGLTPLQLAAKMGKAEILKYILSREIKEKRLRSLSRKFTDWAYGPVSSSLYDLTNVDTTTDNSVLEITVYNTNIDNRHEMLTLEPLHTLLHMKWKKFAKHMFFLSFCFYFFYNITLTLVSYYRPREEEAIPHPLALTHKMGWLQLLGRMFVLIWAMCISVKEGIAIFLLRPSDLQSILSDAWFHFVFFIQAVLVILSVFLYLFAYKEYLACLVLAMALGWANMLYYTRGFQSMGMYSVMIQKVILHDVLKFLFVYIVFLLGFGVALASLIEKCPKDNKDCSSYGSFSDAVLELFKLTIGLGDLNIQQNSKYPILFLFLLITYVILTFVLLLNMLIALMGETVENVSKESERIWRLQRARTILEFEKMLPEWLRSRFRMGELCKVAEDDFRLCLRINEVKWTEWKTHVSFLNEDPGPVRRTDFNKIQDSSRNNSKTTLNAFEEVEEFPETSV
Description: (§1) Compounds were tested for their effect on TRPV1, TRPV2, and TRPV3. Methods were similar to those described in Example 15. Briefly, N2a cells were transfected with human TRPV1, TRPV2, or TRPV3. eGFP-transfection was used as control. For specific stimulation of TRPV1, 5 μM capsaicin was used. For stimulation of TRPV2, hypotonicity (260 mosmol/L) was used, based on previous reports of TRPV2 being osmotically responsive. N2a cells were not responsive to hypotonicity, and neither were control-transfected cells. For TRPV3-expressing cells, camphor (20% of a commercially available stock solution) was used. […] Stimulation and control protocols were applied as for TRPA1-expressing N2a cells as detailed above in Example 15.

human TRPV1 = target: T3, human TRPV1 (Homo sapiens, UniProt Q8NER1); assay: Ca2+ signal in N2a cells transfected with human TRPV1; type: cell-based; conditions: stimulation with 5 μM capsaicin
T3 construct: expressed in transfected cells; host or cells: N2a cells
T3 sequence (Q8NER1 whole entry): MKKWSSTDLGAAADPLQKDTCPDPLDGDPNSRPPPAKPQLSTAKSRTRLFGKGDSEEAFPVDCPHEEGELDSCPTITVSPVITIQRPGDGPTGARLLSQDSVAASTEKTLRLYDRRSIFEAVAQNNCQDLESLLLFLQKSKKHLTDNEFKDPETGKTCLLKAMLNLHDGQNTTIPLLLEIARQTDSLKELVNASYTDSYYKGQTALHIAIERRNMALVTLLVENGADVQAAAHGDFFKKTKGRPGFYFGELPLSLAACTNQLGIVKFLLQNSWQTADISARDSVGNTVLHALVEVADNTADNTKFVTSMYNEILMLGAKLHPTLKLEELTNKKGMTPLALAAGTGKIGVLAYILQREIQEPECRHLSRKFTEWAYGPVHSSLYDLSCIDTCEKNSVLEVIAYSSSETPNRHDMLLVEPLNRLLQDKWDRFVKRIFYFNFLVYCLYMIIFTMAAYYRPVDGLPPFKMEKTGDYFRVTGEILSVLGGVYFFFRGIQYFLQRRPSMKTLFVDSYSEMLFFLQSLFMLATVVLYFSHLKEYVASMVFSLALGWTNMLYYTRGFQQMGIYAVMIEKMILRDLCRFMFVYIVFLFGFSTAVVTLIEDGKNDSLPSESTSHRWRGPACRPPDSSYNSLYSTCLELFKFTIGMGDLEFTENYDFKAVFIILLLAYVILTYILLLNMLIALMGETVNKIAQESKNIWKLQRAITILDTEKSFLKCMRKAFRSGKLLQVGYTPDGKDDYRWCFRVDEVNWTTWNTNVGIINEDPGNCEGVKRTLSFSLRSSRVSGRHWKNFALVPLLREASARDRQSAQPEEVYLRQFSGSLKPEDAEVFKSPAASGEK
Description: as §1

Row | Structure (SMILES) | UVB-evoked Ca++ signal in TRPV4-transfected HEK293T cells (TRPV4 [1]) | keratinocyte expression of IL-6 in UVB-exposed footpad (IL-6) | GSK101-evoked Ca++ transient (TRPV4 [2]) | Ca2+ transience on TRPV3 stimulation (human TRPV3) | Ca2+ transience on TRPV1 stimulation (human TRPV1)
1 | CN(CCc1ccc(Nc2nc(-c3cccnc3)cs2)cc1)Cc1ccccc1 [GSK205] | blocked; also recorded: virtually eliminates | Comparably significant blocks; also recorded: attenuates keratinocyte expression of IL-6 | eliminated; also recorded: completely blocked |  | 
2 | CN(CCc1ccc(Nc2nc(-c3ccccc3)cs2)cc1)Cc1ccccc1 [Compound 16-8] |  |  |  | not affected | not affected
